# Tests used:
# [1] = tested on: translational readthrough; experiment: AML2 readthrough assay (Fluc/Nluc-G36A reporter), OCI-AML2; assay type: cell-based, human; conditions: 300 μg/ml G418 or 200 nM Compound D
# Experimental: It is known that amino acid starvation causes GCN2 activation, which phosphorylates eIF2α. Because GSPT1 mediates normal translation termination, it is hypothesized that depletion of GSPT1 by Compound D may cause readthrough of stop codons. Whether the translational readthrough induced by Compound D contributes to the increased levels of p-eIF2α was investigated. OCI-AML2 cells stably expressing the Fluc/Nluc-G36A readthrough reporter were treated with 300 μg/ml G418 or 200 nM Compound D for 2, 4, 6, 8, 10, 12, or 16 hours. The levels of p-eIF2α were measured by immunoblot analysis. AML2 readthrough assay was conducted to measure the readthrough reporter.
# ATF3 and DDIT3 mRNA [2] = experiment: ATF3 and DDIT3 mRNA induction, HNT-34; assay type: cell-based, human
# From the text: (§1) The kinetics of induction of mRNA for UPR factors ATF3 and DDIT3 in HNT-34 cells also strongly differed from that in PBMCs. […] This is also consistent with the reduced cytotoxicity observed for Compound D in normal adult lymphocytes as compared with tumor cells (data not shown).
# DDIT3 (CHOP) = DDIT3 (CHOP) mRNA, quantitative PCR, KG-1; assay type: cell-based, human; conditions: KG-1, 100 nM Compound D or greater
# Experimental: Compound D regulates UPR stress RNAs, ATF3 and CHOP, and nonsense-mediated decay (NMD) RNAs, SRSF3 and SRSF6, in KG-1 cells in both dose- and time-dependent manners. KG-1 cells were plated in 10 cm^2 dishes and incubated overnight. The following day, KG-1 cells were treated with a 6-point dose response (0, 3, 10, 30, 100, 300 nM) of Compound D and incubated for 2, 4, 8, and 20 hours. Cells were removed from dishes and cell pellets were prepared for RNA isolation (Qiagen RNA isolation kit). Total RNA was quantitated using NanoDrop spectrophotometer and cDNA was reversely transcribed using 1 μg total RNA. Quantitative PCR was performed in replicates for each sample using primer sets for ATF3, CHOP, and both NMD and normal transcripts of SRSF3 and SRSF6. Data was doubly normalized to the 18S housekeeping gene and 2 hour DMSO control. Normalized RNA expression (y-axis) versus drug concentration in nM (x-axis) for each time point was plotted. SRSF3-1 NMD and SRSF6-1 NMD depict amplification of NMD transcript for SRSF3 and SRSF6, respectively. SRSF3-3 Normal and SRSF6-3 Normal depict amplification of normal transcript for SRSF3 and SRSF6 genes, respectively. […] FIGS. 29A-29F show effects of Compound D treatment on UPR and NMD pathways in KG-1 cells. […] Additionally, 100 nM Compound D or greater induced the mRNA levels of ATF3 and DDIT3 (CHOP) approximately 100-fold and 10-fold, respectively. […]
# MOLM-13 cells = experiment: Anti-proliferation CTG assay, MOLM-13; assay type: cell-based, human
# Experimental: A plethora of AML cell lines were treated with serial dilutions of Compound D. IC50 value of the anti-proliferation effect of Compound D (as determined in 72-hour CTG assays) in each cell line is summarized in Table 1.
# The effect of overexpression of GSPT1 on the anti-proliferative effect of Compound D and Compound E was determined in human histiocytic lymphoma cell line U937 and human leukemia cell line MOLM13. Treatment compounds (e.g., Compound D or Compound E) were titrated from 0.001 μM to 10 μM. Cell proliferation was measured by CellTiter-Glo cell viability assay at 48 hours after treatment. […] However, when exogenous GSPT1 was overproduced via the EF1α promoter, as shown in FIGS. 5A-5D, the anti-proliferative effect of Compound D and Compound E reduced.
# F36-P cells = experiment: Apoptosis (caspase 3/7 activation), F36-P; assay type: cell-based, human
# GSPT1 = GSPT1 (Homo sapiens, UniProt P15170+Q96SW2); experiment: GSPT1 protein reduction, western analysis, HNT-34; assay type: cell-based; parameters: reduction in GSPT1 protein level was evaluated in human normal PBMCs; endogenous in cells; host or cells: primary PBMCs from normal donors (ID 4328, 4379) and AML patients (ID 11SH, 09P6); conditions: HNT-34, 10 nM Compound D
# Sequence of GSPT1 (P15170 1-637 isoform P15170-3): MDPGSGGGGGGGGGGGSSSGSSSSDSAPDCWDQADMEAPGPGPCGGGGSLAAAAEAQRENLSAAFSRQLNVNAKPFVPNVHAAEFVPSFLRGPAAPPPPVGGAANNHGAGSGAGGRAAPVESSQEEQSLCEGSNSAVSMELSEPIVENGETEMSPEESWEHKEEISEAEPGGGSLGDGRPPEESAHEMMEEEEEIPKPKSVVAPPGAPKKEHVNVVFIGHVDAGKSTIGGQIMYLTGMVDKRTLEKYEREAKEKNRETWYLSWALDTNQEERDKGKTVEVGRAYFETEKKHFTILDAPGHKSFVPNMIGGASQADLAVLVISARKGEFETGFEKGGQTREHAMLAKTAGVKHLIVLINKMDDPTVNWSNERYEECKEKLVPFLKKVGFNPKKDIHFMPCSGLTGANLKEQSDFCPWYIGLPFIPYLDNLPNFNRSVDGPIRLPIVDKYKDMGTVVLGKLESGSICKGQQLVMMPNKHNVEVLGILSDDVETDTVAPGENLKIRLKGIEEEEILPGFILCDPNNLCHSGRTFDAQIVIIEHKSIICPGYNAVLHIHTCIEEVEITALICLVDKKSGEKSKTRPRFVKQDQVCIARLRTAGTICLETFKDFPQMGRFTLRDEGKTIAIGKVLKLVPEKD
# Sequence of GSPT1 (Q96SW2 whole entry): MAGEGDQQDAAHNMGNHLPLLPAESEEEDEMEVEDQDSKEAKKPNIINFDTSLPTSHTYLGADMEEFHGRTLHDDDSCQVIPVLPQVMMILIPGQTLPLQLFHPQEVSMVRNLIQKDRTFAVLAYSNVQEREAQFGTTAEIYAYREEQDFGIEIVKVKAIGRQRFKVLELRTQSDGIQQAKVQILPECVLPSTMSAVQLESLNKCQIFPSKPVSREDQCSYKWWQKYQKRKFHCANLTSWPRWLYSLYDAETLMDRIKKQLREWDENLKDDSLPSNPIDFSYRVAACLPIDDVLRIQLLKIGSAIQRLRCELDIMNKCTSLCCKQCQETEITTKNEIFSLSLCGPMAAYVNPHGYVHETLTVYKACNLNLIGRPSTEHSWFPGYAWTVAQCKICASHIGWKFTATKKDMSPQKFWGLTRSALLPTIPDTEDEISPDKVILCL
# Sequence of GSPT1 (Q16531 whole entry partner): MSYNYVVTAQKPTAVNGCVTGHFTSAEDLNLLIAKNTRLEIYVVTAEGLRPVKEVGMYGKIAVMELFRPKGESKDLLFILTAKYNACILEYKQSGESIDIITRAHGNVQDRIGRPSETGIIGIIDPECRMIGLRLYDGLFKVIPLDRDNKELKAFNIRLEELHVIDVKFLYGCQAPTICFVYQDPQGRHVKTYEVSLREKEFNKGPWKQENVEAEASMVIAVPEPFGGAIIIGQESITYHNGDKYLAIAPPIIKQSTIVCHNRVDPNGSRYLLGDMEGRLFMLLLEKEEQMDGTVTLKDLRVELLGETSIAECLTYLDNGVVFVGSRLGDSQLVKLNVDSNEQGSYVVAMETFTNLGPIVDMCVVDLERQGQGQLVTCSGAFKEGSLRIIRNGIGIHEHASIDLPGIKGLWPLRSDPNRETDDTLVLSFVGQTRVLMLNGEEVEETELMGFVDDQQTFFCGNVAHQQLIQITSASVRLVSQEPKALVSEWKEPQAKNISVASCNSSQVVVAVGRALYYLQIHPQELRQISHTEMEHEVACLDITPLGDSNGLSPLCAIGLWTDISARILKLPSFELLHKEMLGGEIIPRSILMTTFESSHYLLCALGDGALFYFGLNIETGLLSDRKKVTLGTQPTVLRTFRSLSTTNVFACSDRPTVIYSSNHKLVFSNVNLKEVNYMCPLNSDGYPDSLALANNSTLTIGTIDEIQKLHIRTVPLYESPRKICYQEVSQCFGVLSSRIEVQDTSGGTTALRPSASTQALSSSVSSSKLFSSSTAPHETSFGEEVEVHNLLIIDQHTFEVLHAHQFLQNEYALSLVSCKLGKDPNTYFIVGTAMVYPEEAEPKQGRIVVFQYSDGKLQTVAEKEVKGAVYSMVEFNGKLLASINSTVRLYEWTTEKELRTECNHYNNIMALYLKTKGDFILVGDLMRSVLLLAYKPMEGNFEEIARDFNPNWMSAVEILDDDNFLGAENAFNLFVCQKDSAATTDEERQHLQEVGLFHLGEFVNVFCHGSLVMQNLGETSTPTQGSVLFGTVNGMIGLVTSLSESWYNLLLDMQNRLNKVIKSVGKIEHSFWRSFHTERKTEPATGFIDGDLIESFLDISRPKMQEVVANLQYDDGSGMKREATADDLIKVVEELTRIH
# Experimental: The time course of the reduction in GSPT1 by Compound D also was studied for up to 48 hours. The progressive degradation of GSPT1 over the course of 1 to 20 hours was evident in the presence of all concentrations of Compound D studied from 3 to 300 nM in HNT-34, HL-60, and ML-2 cells, with little GSPT1 remaining by 20 hours at 100 or 300 nM Compound D in HNT-34 or HL-60 cells (FIG. 34 and FIG. 35C). Time-dependent reduction in GSPT1 was also observed in KG-1 and OCI-AML2 cells at 3 to 1000 nM Compound D, with little GSPT1 remaining in KG-1 cells at 100 to 300 nM at 24 hours or in OCI-AML2 cells at 300 and 1000 nM at 24 hours (FIG. 35D). Loss of GSPT1 occurred more slowly in Kasumi-1, AML-193, and […] cells. […] A positive association (r^2=0.50; […]
# ATF3 and DDIT3 mRNA [3] = experiment: ATF3 and DDIT3 mRNA induction, healthy PBMCs; assay type: cell-based, human; conditions: by 8 hours
# From the text: as §1
# OCI-AML3 cells = experiment: Apoptosis (caspase 3/7 activation), OCI-AML3; assay type: cell-based, human; conditions: OCI-AML3, 123 nM
# [4] = tested on: p-eIF2α, ATF4, ATF3, CHOP/DDIT3, cleaved Caspases; experiment: UPR / ATF4 pathway and apoptosis markers in U937 cells (wild type and CRISPR knockouts); assay type: cell-based, human; conditions: for ATF4 pathway and apoptosis: 4 μM
# From the text: PERK, one of the four eIF2α, kinases, was knocked out in U937 cells by CRISPR-mediated gene editing using PERK−/− Construct 1 or PERK−/− Construct 2.
# GCN2, one of the four eIF2α, kinases, was knocked out in U937 cells by CRISPR-mediated gene editing using GCN2 CRISPR Construct 1 or GCN2 CRISPR Construct 4.
structure (smiles),measurement,setting,value
"O=C1CCC(N2Cc3cc(CNC(=O)C(F)(F)c4ccc(Cl)cc4)ccc3C2=O)C(=O)N1 (centres unmarked) [Compound D, 2-(4-chlorophenyl)-N-((2-(2,6-dioxopiperidin-3-yl)-1-oxoisoindolin-5-yl)methyl)-2,2-difluoroacetamide]",translational readthrough,[1],induced translational readthrough at a comparable level
same,time of induction of ATF3 and DDIT3 mRNA,ATF3 and DDIT3 mRNA [2],≤ 8 h
same,induction of DDIT3 (CHOP) mRNA level,DDIT3 (CHOP),~10 fold
same,IC50,"MOLM-13 cells; Homo sapiens, MOLM-13, 72-hour CTG assay, read-out: IC50 of the anti-proliferative effect",75 nM
same,anti-proliferative effect,"MOLM-13 cells; MOLM13 CRBN -/- cells, 48 hours",completely abolished
same,cell proliferation (CellTiter-Glo),"MOLM-13 cells; MOLM13 parental cells, 0.001 μM to 10 μM, 48 hours",inhibited cell proliferation
same,"Average Percent Increase in Apoptosis at 123 nM Compound D, Apoptosis (12 hr)",F36-P cells; 12 hr,0%
same,"Average Percent Increase in Apoptosis at 123 nM Compound D, Apoptosis (24 hr)",F36-P cells; 24 hr,2%
same,"Average Percent Increase in Apoptosis at 123 nM Compound D, Apoptosis (48 hr)",F36-P cells; 48 hr,6%
same,time at which GSPT1 degradation was evident,GSPT1,≤ 2 h
same,induction of ATF3 or DDIT3 mRNA,ATF3 and DDIT3 mRNA [3],no induction
same,"Average Percent Increase in Apoptosis at 123 nM Compound D, Apoptosis (12 hr)",OCI-AML3 cells; 12 hr,0%
same,"Average Percent Increase in Apoptosis at 123 nM Compound D, Apoptosis (24 hr)",OCI-AML3 cells; 24 hr,1%
same,"Average Percent Increase in Apoptosis at 123 nM Compound D, Apoptosis (48 hr)",OCI-AML3 cells; 48 hr,2%
same,ATF4 pathway and apoptosis,[4]; GCN2 knockout U937 cells,blocked
same,ATF4 pathway and apoptosis,[4]; wild type U937 cells,induced the ATF4 pathway and apoptosis
same,apoptosis,"[4]; wild type and PERK knockout U937 cells, 2 μM",induced apoptosis

# — patent publication US12474342B2, “Methods for treating cancer and the use of biomarkers as a predictor of clinical sensitivity to therapies” (CELGENE CORPORATION, priority 2016, dated 2025)
